What was measured:
K562 cell line = assay: Annexin V-FITC/PI flow cytometry apoptosis assay K562; assay type: cell-based, human; details: 24 h
Experimental: (§1) Cell death was assessed after 24 h incubation with compounds 18 and 22. Apoptosis was analyzed by flow cytometry using annexin V-FITC and propidium iodide (PI). Early apoptosis was defined by annexin V-FITC expression and, necrosis by PI expression, late apoptosis by coexpression of annexin V/PI. Doxorubicin and quercetin were used as positive controls. The results of a typical flow cytometry analysis of both compounds are illustrated in Figure 2 and Figure 3. An increase in early apoptosis and late apoptosis was observed; necrosis was less predominant. The results are summarized in Tables S1 and S2 (Supplementary Materials). The expression of annexin V was different depending on the compound used. K562, A549 cell lines were treated as described by the manufacturer (Santa Cruz Biotechnology), washed, and resuspended in annexin V binding buffer (0.01 M HEPES, 0.14 M NaCl, and 2.5 mM CaCl2) with the subsequent incubation of annexinV-FITC and then PI. An Epics XL cytometer (Beckman Coulter, Indianapolis, IN, USA) was used for the analysis. Untreated cells were the negative controls, and doxorubicin (Dox) (1 μM), and quercetin (QC) (50 μM) were the positive controls. Early apoptosis refers to annexin V expression, late apoptosis, the coexpression of annexin V and PI, and necrosis the sole expression of PI. […] The experiments were performed as described before. To avoid the unwanted effects of DMSO, the concentrations of the compounds were never higher than 100 μM.

A549 cell line = assay: Annexin V-FITC/PI flow cytometry apoptosis assay A549; assay type: cell-based, human; details: 24 h
Experimental: as §1

CCRF-CEM = assay: MTS antiproliferative assay CCRF-CEM; assay type: cell-based; details: Homo sapiens, 72 h of incubation
Text: (§2) The cell lines used were acquired from the American Type Culture Collection (ATCC), CCRF-CEM (T lymphoblastic leukemia), K562 ([…]), U2OS (osteosarcoma), HCT116 (colon carcinoma), A549 (lung adenocarcinoma) and HCT116p53−/− (HCT116 cell line mutated in p53) Horizon Discovery Ltd., (Waterbeach, Cambridge, United Kingdom).
(§3) In our laboratory, IMTM, we generated the daunorubicin-resistant subline of CCRF-CEM cells (CEM-DNR bulk) and paclitaxel-resistant subline K562-TAX, as described previously. […] Both ABC transporters are involved in drug resistance. As a control, human fibroblasts MRC-5 and BJ cell lines were used. […] Adherent cells were passaged using PBS containing 0.25% trypsin plus 0.01% EDTA (ethylenediamine tetraacetic acid) every 2–3 days.
(§4) The antiproliferative activity of compounds was determined using a standard 3-(4,5-dimethylthiazol-2yl)-5-(3-carboxymethoxyphenyl)-2-(4-sulfophenyl)-2H-tetrazolium (MTS) reduction assay on a robotic high throughput screening platform (HighResBio, Boston, MA, USA) following treatment of cells for 3–7 days. The IC50 values were calculated from the appropriate dose–response curves with Dotmatics software (San Diego, CA, USA).

K562 = assay: MTS antiproliferative assay K562; assay type: cell-based, human; details: for IC50: 72 h of incubation
Text: as §2, §3, §4

BJ = assay: MTS assay on non-malignant BJ; assay type: cell-based; details: noncancerous human cell line
Experimental: as §3, §4

BMDM macrophages = assay: MTT cytotoxicity on BMDM macrophages; assay type: cell-based; details: Mus musculus, 72 h
Text: T. cruzi epimastigotes MHOM/VE/92/YBM venezuelan strain were used to test the anti T. cruzi in vitro studies. The strain was maintained in a modified LIT medium with 10% fetal bovine serum (FBS). Mouse bone marrow was used to obtain BMDM macrophages. Mouse fibroblast-conditioned medium L-929 was used for the differentiation and maintenance of BMDM macrophages. We evaluated through a colorimetric method the effect of compounds 8–23 on the promastigotes of L. brasiliensis. Briefly, 96-well plates were used, where 2 × 10^6 parasites/mL were seeded. A concentration of 50 μM was used for each compound and an incubation time of 96 h at 29 °C. 3-(4,5-dimethylthiazol-2-yl)-2,5-diphenyl tetrazolium bromide (MTT) 1 μg/mL was added and incubated in darkness for 4 h, acidic isopropanol (4N) was added and the plate was read at 570 nm in a spectrophotometer Synergy HT (Biotek). Miltefosine was used as a reference drug. The EC50 calculation of the selected compound was performed using growth curves. Direct counting was used to monitor the proliferation of parasites, three independent experiments were performed for each concentration of the compounds evaluated. The in vitro evaluations of compounds toxicity by MTT in VERO and BMDM cells follow a methodology described above with some modifications. The selectivity index was calculated with SI = CC50/EC50, where CC50 was the maximum concentration range of compounds 10, 21–23 used to evaluate cytotoxicity in VERO and BMDM cells. The trypanocidal activity of compounds 8–23 was evaluated on the viability of T. cruzi epimastigotes through a colorimetric method adapted with minor modifications. 2 × 10^6 parasites/mL were seeded in a 96-well plate, adding 50 μM of each derivative dissolved in DMSO (final concentration remained below 1%). The plate was incubated for 96 h at 29 °C. Then, 1 μg/mL of 3-(4,5-dimethylthiazol-2-yl)-2,5-diphenyl tetrazolium bromide (MTT) was added and incubated in darkness for 4 h. After this time, acidic isopropanol (4N) was added and the plate was read at 570 nm in a spectrophotometer Synergy HT (Biotek). Benznidazole was used as a reference drug. The in vitro evaluations of compounds toxicity by MTT in VERO and BMDM cells follow a methodology described above with some modifications. Cells were counted in suspension and seeded at 20 × 10^3 cells/well. The test was carried out in triplicate on 96-well microplates in different concentrations: 50 μM, 100 μM, 200 μM and 300 μM, untreated cells and reference drug (benznidazole) controls.

[1] = tested on: epimastigotes of Trypanosoma cruzi strain MHOM/VE/92/YBM; assay: MTT viability of T. cruzi epimastigotes; assay type: cell-based
A549 = assay: MTS antiproliferative assay A549; assay type: cell-based, human; details: 72 h of incubation
Text: as §2, §3, §4

U2OS = assay: MTS antiproliferative assay U2OS; assay type: cell-based; details: Homo sapiens, 72 h of incubation
Text: as §2, §3, §4

MRC-5 = assay: MTS assay on non-malignant MRC-5; assay type: cell-based; details: MRC5; noncancerous human cell line
Experimental: as §3, §4

HCT116p53−/− = assay: MTS antiproliferative assay HCT116p53-/-; assay type: cell-based; details: Homo sapiens; 72 h of incubation
Text: as §2, §3, §4

IC50 (CCRF-CEM): 5.23 ± 0.3 µM
IC50 (K562): 3.91 ± 0.14 µM
IC50 (K562; Homo sapiens, K562, 72 h): 3.91 to 4.33 µM
EC50 ([1]; Trypanosoma cruzi, 72 h, epimastigotes): 5.03 ± 0.49 µM
IC50 (A549): 9.74 ± 1.28 µM
IC50 (A549; Homo sapiens, A549, 72 h): 9.64 to 9.74 µM
IC50 (U2OS): 8.1 ± 1.71 µM
IC50 (HCT116p53−/−): 33.9 ± 5.63 µM
SMILES: COc1ccc2c(c1)CC/C(=C\c1cccnc1Oc1ccc(Cl)cc1)C2=O [Compound 22, (E)-2-{[2-(4-Chlorophenoxy)pyridin-3-yl]methylene}-3,4-dihydro-6-methoxynaphthalen-1(2H)-one]
AV+/IP+ (late apoptosis) (K562 cell line; K562, 5 µM): 1.85%
AV+/IP- (early apoptosis) (K562 cell line; K562, 5 µM): 20.90%
AV-/IP+ (necrosis) (K562 cell line; K562, 5 µM): 0.44%
AV+/IP+ (late apoptosis) (K562 cell line; K562, 10 µM): 77.70%
AV+/IP- (early apoptosis) (K562 cell line; K562, 10 µM): 21.80%
AV-/IP+ (necrosis) (K562 cell line; K562, 10 µM): 0.29%
annexin V-FITC expression (K562 cell line; K562, 10 µM): higher than 50%
AV+/IP+ (late apoptosis) (A549 cell line; A549, 10 µM): 23.30%
AV+/IP- (early apoptosis) (A549 cell line; A549, 10 µM): 13.80%
AV-/IP+ (necrosis) (A549 cell line; A549, 10 µM): 8.44%
AV+/IP+ (late apoptosis) (A549 cell line; A549, 25 µM): 78.30%
AV+/IP- (early apoptosis) (A549 cell line; A549, 25 µM): 9.36%
AV-/IP+ (necrosis) (A549 cell line; A549, 25 µM): 9.32%
times higher cytotoxicity against K562 than K562-TAX (K562; ratio of IC50 values): 5.5 times
IC50 (BJ): > 50 µM
EC50 (BMDM macrophages): 468 µM
SIV/Tc selectivity index on T. cruzi/VERO ([1]; SI = CC50/EC50): 20
selectivity index T. cruzi vs BMDM (CC50/EC50) ([1]; SI = CC50/EC50): 93
IC50 (MRC-5): > 50 µM

— PMC9457600, “Synthesis, Leishmanicidal, Trypanocidal, Antiproliferative Assay and Apoptotic Induction of (2-Phenoxypyridin-3-yl)naphthalene-1(2H)-one Derivatives” (Molecules, 2022)
